From patent US20230255970A1, “COMPOSITIONS AND METHODS FOR TREATING PROLIFERATIVE DISEASES” (The Broad Institute, Inc., priority 2020, published 2023)

What was measured:
[1] = system: U2OS cells; test: Cell count in U2OS Cell Painting images; assay type: cell-based, human; conditions: U2OS Cell Painting
How it was run: (§1)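 Compound-treated U2OS cells were stained with six fluorescent labels and imaged, and morphological profiles were standardized plate-wise against controls. Replicate profiles were averaged into signatures. Compound and gene-overexpression signatures were matched by Pearson correlation.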

[2] = system: STK3/MST2 overexpression; test: Cell Painting morphological profile matching to STK3/MST2 overexpression; assay type: cell-based, human
From the text: To profile each exogenously expressed gene (or allele therein), the previously developed image-based profiling assay, called Cell Painting was used (see Bray et al., Nat. Protoc. 2016 September; 11(9): 1757-1774). […] In five replicates in 384-well plate format, U2OS cells (human bone osteosarcoma cells), chosen for their flat morphology and previous validation in the assay, were infected with an arrayed ‘reference’ expression library of 323 open reading frame (ORF) constructs of partially characterized functions, a subset of which have been previously described. […]
Using the morphological signature found for YAP1 and TAZ, data mining was performed seeking compounds that effected the same (or opposite) morphology by computationally matching the morphological signature to a public database of small molecule signatures (see Caicedo et al., Nat. Meth. 2017 September; 14(9), 849-63, doi:10.1038/nMeth.4397, incorporated herein by reference). Specifically, the intersection of features in the two datasets was determined, resulting in 605 features (1399 features in the genetic screen, without any feature selection; and 729 features in the compound screen, obtained using the findCorrelation function with a threshold of 0.90 on the original 1,783 dimensional feature set). […]

[3] = system: TRAF2 overexpression in U2OS cells; test: Cell Painting morphological profile matching to TRAF2 overexpression; assay type: cell-based, human; conditions: Pearson correlation of Cell Painting signatures, U2OS cells
How it was run: as §1

[4] = system: TEAD luciferase reporter; test: YAP1-responsive TEAD luciferase reporter assay in HEK293T cells; assay type: cell-based; conditions: 10 μM, 48 h, HEK-293 cells
Protocol: A TEAD luciferase reporter was co-transfected with or without a Yap expression construct into HEK293T cells followed by treatment for 48 hours with DMSO or the indicated compounds. The data shown are the average of three samples within a representative experiment.
YAP1-related reporter assay: HEK293T cells were co-transfected using Lipofectamine 3000 (Thermo Fisher) with a TEAD luciferase reporter construct, 8×GTIIC-luciferase (Addgene plasmid #34615), a plasmid expressing Renilla Luciferase from a CMV promoter as a transfection control, along with a plasmid expressing 3×Flag-tagged wild-type YAP1 from a CMV promoter (pCMV5 backbone). Following transfection the cells were immediately treated with 0.2% DMSO, 10 μM NB4A, BRD-K34692511 or BRD-K28862419 and then lysed 48 hours later. Lysates were examined using the Dual-Luciferase Reporter Assay System (Promega) according to the manufacturer's protocol and measured using a SpectraMax iD3 plate reader (Molecular Devices). Firefly Luciferase activity from the TEAD reporter was normalized to Renilla Luciferase activity and then plotted as relative values.

Compound: c1ccc(CNc2ncnc3ccccc23)cc1 [BRD-K43796186, N-benzylquinazolin-4-amine]
- Avg. Cell Count z-score [1]: −0.5708
- Morphological profile correlation with overexpression of STK3/MST2 [2]: −0.49
- Corr. to TRAF2 [3]: −0.3778
- YAP1-responsive (TEAD) reporter activity [4]: no effect
